Reference: BigSolDB 2.1

C[C@@H]1O[C@@H](O[C@H]2[C@H](Oc3cc(O)c4c(c3)O[C@H](c3ccc(O)cc3)CC4=O)O[C@H](CO)[C@@H](O)[C@@H]2O)[C@H](O)[C@H](O)[C@H]1O
solubility (mole fraction)
Settings | 288.15 K | 293.15 K | 298.15 K | 303.15 K | 308.15 K | 313.15 K | 318.15 K | 323.15 K | 328.15 K
in ethyl acetate | 0.000184 | 0.000248 | 0.00031 | 0.00035 | 0.000404 | 0.000458 | 0.000513 | 0.000594 | 0.000646
in isopropanol | 1.26e-05 | 1.59e-05 | 2.1e-05 | 2.46e-05 | 2.97e-05 | 3.34e-05 | 3.75e-05 | 4.29e-05 | 4.79e-05
in methanol | 0.00158 | 0.00168 | 0.00197 | 0.00224 | 0.00264 | 0.00291 | 0.00322 | 0.00359 | 0.00389
in n-butanol | 4.85e-05 | 6.34e-05 | 7.46e-05 | 0.000105 | 0.000157 | 0.000218 | 0.000285 | 0.000345 | 0.000391
in n-hexane | 9.97e-08 | 1.39e-07 | 1.75e-07 | 2.21e-07 | 2.63e-07 | 3.12e-07 | 3.6e-07 | 4.04e-07 | 4.55e-07

O=C1C[C@@H](c2ccc(O)cc2)Oc2cc(O)cc(O)c21
solubility (mole fraction)
Settings | 288.15 K | 293.15 K | 298.15 K | 303.15 K | 308.15 K | 313.15 K | 318.15 K | 323.15 K | 328.15 K
in ethyl acetate | 0.00998 | 0.0133 | 0.0154 | 0.0171 | 0.0191 | 0.0215 | 0.0244 | 0.027 | 0.0293
in isopropanol | 0.0101 | 0.0116 | 0.0141 | 0.0161 | 0.0185 | 0.0204 | 0.0218 | 0.0252 | 0.0264
in methanol | 0.00875 | 0.0094 | 0.00991 | 0.0105 | 0.0114 | 0.0144 | 0.0173 | 0.0187 | 0.0205
in n-butanol | 0.000972 | 0.00137 | 0.00175 | 0.00215 | 0.00259 | 0.00299 | 0.00344 | 0.00388 | 0.0042
in n-hexane | 2.92e-06 | 3.7e-06 | 4.71e-06 | 5.42e-06 | 6.46e-06 | 7.17e-06 | 7.73e-06 | 8.69e-06 | 9.09e-06
